Tests used:
Assay in all cases: Ceftazidime MIC with fixed concentration of BLI
Assay type in all cases: cell-based
[1] = test system: pa1063 Pseudomonas aeruginosa GES-1; details: pa1063 GES-1
Experimental: (§1) Next, ceftazidime potentiation activity of several cyclic boronic acid ester derivatives was tested using a larger panel of strains expressing β-lactamase hydrolyzing enzymes. Ceftazidime MICs were determined alone and in the presence of fixed concentrations of various cyclic boronic acid ester derivatives.

[2] = test system: ec301 Escherichia coli TEM-6; details: ec301 TEM-6
Experimental: as §1

[3] = test system: ec303 Escherichia coli TEM-12; details: ec303 TEM-12
Experimental: as §1

[4] = test system: ec308 Escherichia coli SHV-5; details: ec308 SHV-5
Experimental: as §1

[5] = test system: AB1057 Acinetobacter baumannii OXA-58; details: AB1057 OXA-58
Experimental: as §1

[6] = test system: EC1009 Escherichia coli TEM-10; details: EC1009 TEM-10
Experimental: as §1

[7] = test system: KP1004 Klebsiella pneumoniae KPC-2; details: KP1004 KPC-2
Experimental: as §1

[8] = test system: EC1004 Escherichia coli CMY-2; details: EC1004 CMY-2
Experimental: as §1

[9] = test system: EC1007 Escherichia coli KPC-3; details: EC1007 KPC-3
Experimental: as §1

[10] = test system: CF1000 Citrobacter freundii Hyper AmpC expression
Experimental: as §1

[11] = test system: EC1011 Escherichia coli TEM-26; details: EC1011 TEM-26
Experimental: as §1

[12] = test system: EC1008 Escherichia coli CTX-M3
Experimental: as §1

[13] = test system: KP1007 Klebsiella pneumoniae OXA-10; details: KP1007 OXA-10
Experimental: as §1

[14] = test system: ec309 Escherichia coli MIR-1; details: ec309 MIR-1
Experimental: as §1

[15] = test system: PAM2035 Pseudomonas aeruginosa ampC mexA:tet
Experimental: as §1

[16] = test system: AB1054 Acinetobacter baumannii OXA-23; details: AB1054 OXA-23
Experimental: as §1

[17] = test system: ECL1002 Enterobacter cloacae Hyper AmpC expression
Experimental: as §1

[18] = test system: EC1012 Escherichia coli TEM-12; details: EC1012 TEM-12
Experimental: as §1

[19] = test system: ec307 Escherichia coli SHV-4; details: ec307 SHV-4
Experimental: as §1

[20] = test system: KP1010 Klebsiella pneumoniae SHV-12; details: KP1010 SHV-12
Experimental: as §1

[21] = test system: ec306 Escherichia coli SHV-2; details: ec306 SHV-2
Experimental: as §1

[22] = test system: KP1012 Klebsiella pneumoniae SHV-18; details: KP1012 SHV-18
Experimental: as §1

[23] = test system: KP1005 Klebsiella pneumoniae CTX-M-14; details: KP1005 CTX-M-14
Experimental: as §1

[24] = test system: EC1010 Escherichia coli CMY-6; details: EC1010 CMY-6
Experimental: as §1

[25] = test system: EC1014 Escherichia coli DHA-1; details: EC1014 DHA-1
Experimental: as §1

[26] = test system: PAM2005 Pseudomonas aeruginosa ampC
Experimental: as §1

[27] = test system: KP1009 Klebsiella pneumoniae CTX-M-15; details: KP1009 CTX-M-15
Experimental: as §1

[28] = test system: KX1000 Klebsiella oxytoca OXA-2; details: KX1000 OXA-2
Experimental: as §1

[29] = test system: KP1008 Klebsiella pneumoniae KPC-2; details: KP1008 KPC-2
Experimental: as §1

[30] = test system: ec310 Escherichia coli ACT-1; details: ec310 ACT-1
Experimental: as §1

[31] = test system: EC1006 Escherichia coli FOX-5; details: EC1006 FOX-5
Experimental: as §1

[32] = Pseudomonas aeruginosa, read-out: Ceftazidime MIC Alone
[33] = Escherichia coli, read-out: Ceftazidime MIC Alone
[34] = Acinetobacter baumannii, read-out: Ceftazidime MIC Alone
[35] = Klebsiella pneumoniae, read-out: Ceftazidime MIC Alone

CC(C)(O/N=C(\C(=O)N[C@@H]1C(=O)N2C(C(=O)[O-])=C(C[n+]3ccccc3)CS[C@H]12)c1csc(N)n1)C(=O)O [Ceftazidime, reference compound]
MIC [1, 32]: > 8 µg/mL
MIC [2, 33]: > 8 µg/mL
MIC [3, 33]: > 8 µg/mL
MIC [4, 33]: > 8 µg/mL
MIC [5, 34]: > 8 µg/mL
MIC [6, 33]: > 8 µg/mL
MIC [7, 35]: > 8 µg/mL
MIC [8, 33]: > 8 µg/mL
MIC [9, 33]: > 8 µg/mL
MIC ([10]; Citrobacter freundii, read-out: Ceftazidime MIC Alone): > 8 µg/mL
MIC [11, 33]: > 8 µg/mL
MIC [12, 33]: > 8 µg/mL
MIC [13, 35]: > 8 µg/mL
MIC [14, 33]: > 8 µg/mL
MIC [15, 32]: > 8 µg/mL
MIC [16, 34]: > 8 µg/mL
MIC ([17]; Enterobacter cloacae, read-out: Ceftazidime MIC Alone): > 8 µg/mL
MIC [18, 33]: > 8 µg/mL
MIC [19, 33]: > 8 µg/mL
MIC [20, 35]: > 8 µg/mL
MIC [21, 33]: > 8 µg/mL
MIC [22, 35]: > 8 µg/mL
MIC [23, 35]: > 8 µg/mL
MIC [24, 33]: > 8 µg/mL
MIC [25, 33]: > 8 µg/mL
MIC [26, 32]: > 8 µg/mL
MIC [27, 35]: > 8 µg/mL
MIC ([28]; Klebsiella oxytoca, read-out: Ceftazidime MIC Alone): > 8 µg/mL
MIC [29, 35]: 1 to 8 µg/mL
MIC [30, 33]: > 8 µg/mL
MIC [31, 33]: > 8 µg/mL

CC(=O)N[C@H]1CCC(CC(=O)O)OB1O (stereo partly drawn) [Compound 3, 2-((3R)-3-acetamido-2-hydroxy-1,2-oxaborinan-6-yl)acetic acid]
Ceftazidime MIC with cyclic boronic acid ester derivative ([1]; derivative at 10 μg/mL): Z (MIC of greater than 8 μg/mL)
Ceftazidime MIC with cyclic boronic acid ester derivative ([2]; derivative at 10 μg/mL): Z (MIC of greater than 8 μg/mL)
Ceftazidime MIC with cyclic boronic acid ester derivative ([3]; derivative at 10 μg/mL): Z (MIC of greater than 8 μg/mL)
Ceftazidime MIC with cyclic boronic acid ester derivative ([4]; derivative at 10 μg/mL): Z (MIC of greater than 8 μg/mL)
Ceftazidime MIC with cyclic boronic acid ester derivative ([5]; derivative at 10 μg/mL): Z (MIC of greater than 8 μg/mL)
Ceftazidime MIC with cyclic boronic acid ester derivative ([6]; derivative at 10 μg/mL): Z (MIC of greater than 8 μg/mL)
Ceftazidime MIC with cyclic boronic acid ester derivative ([7]; derivative at 10 μg/mL): Y (MIC of greater than 1 μg/mL to 8 μg/mL)
Ceftazidime MIC with cyclic boronic acid ester derivative ([8]; derivative at 10 μg/mL): Y (MIC of greater than 1 μg/mL to 8 μg/mL)
Ceftazidime MIC with cyclic boronic acid ester derivative ([9]; derivative at 10 μg/mL): X (MIC of 1 μg/mL or less)
Ceftazidime MIC with cyclic boronic acid ester derivative ([10]; derivative at 10 μg/mL): Z (MIC of greater than 8 μg/mL)
Ceftazidime MIC with cyclic boronic acid ester derivative ([11]; derivative at 10 μg/mL): Z (MIC of greater than 8 μg/mL)
Ceftazidime MIC with cyclic boronic acid ester derivative ([12]; derivative at 10 μg/mL): Y (MIC of greater than 1 μg/mL to 8 μg/mL)
Ceftazidime MIC with cyclic boronic acid ester derivative ([13]; derivative at 10 μg/mL): Z (MIC of greater than 8 μg/mL)
Ceftazidime MIC with cyclic boronic acid ester derivative ([14]; derivative at 10 μg/mL): Y (MIC of greater than 1 μg/mL to 8 μg/mL)
Ceftazidime MIC with cyclic boronic acid ester derivative ([15]; derivative at 10 μg/mL): Z (MIC of greater than 8 μg/mL)
Ceftazidime MIC with cyclic boronic acid ester derivative ([16]; derivative at 10 μg/mL): Z (MIC of greater than 8 μg/mL)
Ceftazidime MIC with cyclic boronic acid ester derivative ([17]; derivative at 10 μg/mL): Z (MIC of greater than 8 μg/mL)
Ceftazidime MIC with cyclic boronic acid ester derivative ([18]; derivative at 10 μg/mL): Z (MIC of greater than 8 μg/mL)
Ceftazidime MIC with cyclic boronic acid ester derivative ([19]; derivative at 10 μg/mL): Z (MIC of greater than 8 μg/mL)
Ceftazidime MIC with cyclic boronic acid ester derivative ([20]; derivative at 10 μg/mL): Z (MIC of greater than 8 μg/mL)
Ceftazidime MIC with cyclic boronic acid ester derivative ([21]; derivative at 10 μg/mL): Z (MIC of greater than 8 μg/mL)
Ceftazidime MIC with cyclic boronic acid ester derivative ([22]; derivative at 10 μg/mL): Z (MIC of greater than 8 μg/mL)
Ceftazidime MIC with cyclic boronic acid ester derivative ([23]; derivative at 10 μg/mL): Z (MIC of greater than 8 μg/mL)
Ceftazidime MIC with cyclic boronic acid ester derivative ([24]; derivative at 10 μg/mL): Z (MIC of greater than 8 μg/mL)
Ceftazidime MIC with cyclic boronic acid ester derivative ([25]; derivative at 10 μg/mL): Y (MIC of greater than 1 μg/mL to 8 μg/mL)
Ceftazidime MIC with cyclic boronic acid ester derivative ([26]; derivative at 10 μg/mL): Z (MIC of greater than 8 μg/mL)
Ceftazidime MIC with cyclic boronic acid ester derivative ([27]; derivative at 10 μg/mL): Z (MIC of greater than 8 μg/mL)
Ceftazidime MIC with cyclic boronic acid ester derivative ([28]; derivative at 10 μg/mL): Z (MIC of greater than 8 μg/mL)
Ceftazidime MIC with cyclic boronic acid ester derivative ([29]; derivative at 10 μg/mL): X (MIC of 1 μg/mL or less)
Ceftazidime MIC with cyclic boronic acid ester derivative ([30]; derivative at 10 μg/mL): Y (MIC of greater than 1 μg/mL to 8 μg/mL)
Ceftazidime MIC with cyclic boronic acid ester derivative ([31]; derivative at 10 μg/mL): Y (MIC of greater than 1 μg/mL to 8 μg/mL)

Source: US11090319B2, “Therapeutic uses of pharmaceutical compositions comprising cyclic boronic acid ester derivatives” (Melinta Subsidiary Corp., priority 2010, dated 2021)
